Assay results as given in US5698710A, “Tachykinins antagonists” (A. Menarini Industrie Farmaceutiche Riunite S.r.l., priority 1994, dated 1997).

biological target: T1, NK1 receptors (Homo sapiens, UniProt P25103); experiment: [^3 H]SP Binding Assay in IM9 Cell Line (competition); details: intact IM9 cells; 0.3 nM [^3 H]SP; 60' at room temperature; pH 7.5
T1 construct: endogenous in cells; host or cells: IM9 cells (intact)
Method: The evaluation of the antagonist acivity of NK1 receptors was performed with binding and functional tests.
The assay was carried out on intact cells as described by Payan et al. (1984). The cells were washed with buffer A at pH 7.5 containing (in mM) Tris-HCl 50, NaCl 150 and 0.02% BSA, thereafter were resuspended in a dosage buffer (buffer A added with protease inhibitors), concentration 1×10^7 cells/ml. […] The non-specific binding was calculated in the presence of […] of non-radioactive SP. The dosage mixture was poured in test tubes for microcentrifugation which were preadsorbed in a solution of BSA 0.5% for at least 3 hours. […] The affinity was measured as pKi.

T1 sequence (P25103 whole entry): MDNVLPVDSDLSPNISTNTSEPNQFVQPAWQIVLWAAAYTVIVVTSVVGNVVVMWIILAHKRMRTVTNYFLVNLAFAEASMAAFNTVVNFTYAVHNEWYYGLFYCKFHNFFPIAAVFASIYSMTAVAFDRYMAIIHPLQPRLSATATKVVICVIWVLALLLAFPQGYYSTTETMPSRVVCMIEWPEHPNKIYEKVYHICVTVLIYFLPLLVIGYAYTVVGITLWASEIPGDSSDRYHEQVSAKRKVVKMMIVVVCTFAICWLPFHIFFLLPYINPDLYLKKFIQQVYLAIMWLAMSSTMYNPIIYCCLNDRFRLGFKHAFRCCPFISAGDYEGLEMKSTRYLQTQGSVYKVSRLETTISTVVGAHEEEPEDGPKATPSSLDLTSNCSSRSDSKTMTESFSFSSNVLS

SMILES | Affinity (pKi) in the IM9 binding test
CN(Cc1ccccc1)C(=O)C(Cc1ccc2ccccc2c1)NC(=O)C1(NC(=O)c2c[nH]c3ccccc23)CCC(O)CC1 (stereo not drawn) [xviii, N-[N(1(H)indol-3-yl-carbonyl)-1-amino-cis-4-hydrohy-cyclohexancarbonyl]-2-(2-naphthyl)alanine-N-methyl-N-benzylamide] | 8.3
COCCOCOC1CCC(NC(=O)c2c[nH]c3ccccc23)(C(=O)NC(Cc2ccccc2)C(=O)N(C)Cc2ccccc2)CC1 (stereo not drawn) [xxv, N-[N(1(H)indol-3-yl-carbonyl)-1-amino-cis-4-methoxyethoxymethoxyl-cyclohexancarbonyl]-phenylalanine-N-methyl-N-benzylamide] | 7.6

same assay, conditions: read-out: Affinity (pKi) in the IM9 binding test (converted)

SMILES | Ki [nM]
CN(Cc1ccccc1)C(=O)[C@H](Cc1ccc2ccccc2c1)NC(=O)C1(NC(=O)c2c[nH]c3ccccc23)CCCCC1 [Example, N^α [N-(1(H)indol-3-yl-carbonyl)-1-amino-cyclohexan-carbonyl]-L-2-naphthylalanine-N-methyl-N-benzylamide] | 1
COc1ccc(CC(NC(=O)C2(NC(=O)c3c[nH]c4ccccc34)CCCCC2)C(=O)N(C)Cc2ccccc2)cc1 (centres unmarked) [N-[N(1(H)indol-3-yl-carbonyl)-1-amino-cyclohexancarbonyl]-4-methoxyphenylalanine-N-methyl-N-benzylamide] | 3.98
CN(Cc1ccccc1)C(=O)C(Cc1ccc([N+](=O)[O-])cc1)NC(=O)C1(NC(=O)c2c[nH]c3ccccc23)CCCCC1 (centres unmarked) [N-[N(1(H)indol-3-yl-carbonyl)-1-amino-cyclohexancarbonyl]-4-nitrophenylalanine-N-methyl-N-benzylamide] | 20
CN(Cc1ccccc1)C(=O)C(Cc1ccccc1)NC(=O)C1(NC(=O)c2c[nH]c3ccccc23)CCCCC1 (centres unmarked) [N-[N(1(H)indol-3-yl-carbonyl)-1-amino-cyclohexancarbonyl]-phenylalanine-N-methyl-N-benzylamide] | 178
CN(Cc1ccccc1)C(=O)C(Cc1ccc(O)cc1)NC(=O)C1(NC(=O)c2c[nH]c3ccccc23)CCCCC1 (centres unmarked) [N-[N(1(H)indol-3-yl-carbonyl)-1-amino-cyclohexancarbonyl]-tyrosine-N-methyl-N-benzylamide] | 20
CN(Cc1ccccc1)C(=O)C(Cc1ccc2ccccc2c1)NC(=O)C1(NC(=O)c2c[nH]c3ccccc23)CCCC1 (centres unmarked) [N-[N(1(H)indol-3-yl-carbonyl)-1-amino-cyclopentancarbonyl]-2-(2-naphthyl)alanine-N-methyl-N-benzylamide] | 2.51
COc1ccc(CC(NC(=O)C2(NC(=O)c3c[nH]c4ccccc34)CCCC2)C(=O)N(C)Cc2ccccc2)cc1 (centres unmarked) [N-[N(1(H)indol-3-yl-carbonyl)-1-amino-cyclopentancarbonyl]-4-methyoxyphenylalanine-N-methyl-N-benzylamide] | 794
CN(Cc1ccccc1)C(=O)C(Cc1ccccc1)NC(=O)C1(NC(=O)c2c[nH]c3ccccc23)CCCC1 (centres unmarked) [N-[N(1(H)indol-3-yl-carbonyl)-1-amino-cyclopentancarbonyl]-phenylalanine-N-methyl-N-benzylamide] | 158
CN(Cc1ccccc1)C(=O)C(Cc1ccc2ccccc2c1)NC(=O)C1(NC(=O)c2c[nH]c3ccccc23)CCNCC1 (centres unmarked) [N-[N(1(H)indol-3-yl-carbonyl)-4-amino-piperidin-4-carbonyl]-2-(2-naphthyl)alanine-N-methyl-N-benzylamide] | 12.6
CN(Cc1ccccc1)C(=O)C(Cc1ccc2ccccc2c1)NC(=O)C1(NC(=O)c2c[nH]c3ccccc23)CCSCC1 (centres unmarked) [N-[N(1(H)indol-3-yl-carbonyl)-4-amino-tetrahydrothiopyran-4-carbonyl]-2-(2-naphthyl)alanine-N-methyl-N-benzylamide] | 5.01
CN(Cc1ccccc1)C(=O)C(Cc1ccc2ccccc2c1)NC(=O)C1(NC(=O)c2cn(C)c3ccccc23)CCCCC1 (centres unmarked) [N-[N(1(methyl)indol-3-yl-carbonyl)-1-amino-cyclohexancarbonyl]-2-)2-naphthyl)alanine-N-methyl-N-benzylamide] | 15.8
CN(Cc1ccccc1)C(=O)C(Cc1ccc2ccccc2c1)NC(=O)C1(NC(=O)c2ccc(Cl)c(Cl)c2)CCCCC1 (centres unmarked) [N-[N(3,4-dichloro-benzoyl)-1-amino-cyclohexancarbonyl]-2-(2-naphthyl)alanine-N-methyl-N-benzylamide] | 7.94
CN(Cc1ccccc1)C(=O)C(Cc1ccc2ccccc2c1)NC(=O)C1(NC(=O)c2ccc(Cl)cc2)CCCCC1 (centres unmarked) [N-[N(4-chloro-benzoyl)-1-amino-cyclohexancarbonyl]-2-(2-naphthyl)alanine-N-methyl-N-benzylamide] | 10
COc1ccc(C(=O)NC2(C(=O)NC(Cc3ccc4ccccc4c3)C(=O)N(C)Cc3ccccc3)CCCCC2)cc1 (centres unmarked) [N-[N(4-methoxy-benzoyl)-1-amino-cyclohexancarbonyl]-2-(2-naphthyl)alanine-N-methyl-N-benzylamide] | 20
CN(Cc1ccccc1)C(=O)C(Cc1ccc2ccccc2c1)NC(=O)C1(NC(=O)c2ccc([N+](=O)[O-])cc2)CCCCC1 (centres unmarked) [N-[N(4-nitro-benzoyl)-1-amino-cyclohexancarbonyl]-2-(2-naphthyl)alanine-N-methyl-N-benzylamide] | 5.01
CN(Cc1ccccc1)C(=O)C(Cc1ccc2ccccc2c1)NC(=O)C1(NC(=O)c2cc3ccccc3o2)CCCCC1 (centres unmarked) [N-[N(benzofuran-2-yl-carbonyl)-1-aminocyclohexancarbonyl]-2-(2-naphthyl)alanine-N-methyl-N-benzylamide] | 44.7
CN(Cc1ccccc1)C(=O)C(Cc1ccc2ccccc2c1)NC(=O)C1(NC(=O)c2ccccc2)CCCCC1 (centres unmarked) [N-[N(benzoyl)-1-amino-cyclohexancarbonyl]-2-(2-naphthyl)alanine-N-methyl-N-benzylamide] | 15.8
O=C(Cc1ccccc1)NC(Cc1ccc2ccccc2c1)NC(=O)C1(NC(=O)c2c[nH]c3ccccc23)CCCCC1 (centres unmarked) [ii, 1-[N(1(H)indol-3-yl-carbonyl)-1-amino-cyclohexancarbonyl]-amino-1[N-(2-phenylacetyl)amino]-2-(2-naphthyl)ethane] | 15.8
CN(Cc1ccccc1)C(=O)C(Cc1ccc2ccccc2c1)NC(=O)C1(N(C)C(=O)c2cn(C)c3ccccc23)CCCCC1 (centres unmarked) [xii, N-[N(1(methyl)indol-3-yl-carbonyl)-N-methyl-1-amino-cyclohexancarbonyl]-2 naphthylalanine-N-methyl-N-benzylamide] | 15.8
CN(Cc1ccccc1)C(=O)C(Cc1ccc2ccccc2c1)NC(=O)C1(NC(=O)c2c[nH]c3ccccc23)CCOCC1 (centres unmarked) [xxvii, N-[N(1(H)indol-3-yl-carbonyl)-4-amino-tetrahydropyran-4-carbonyl]-2-naphthylalanine-N-methyl-N-benzylamide] | 6.31
CN(C(=O)Cc1ccccc1)C(Cc1ccc2ccccc2c1)NC(=O)C1(NC(=O)c2c[nH]c3ccccc23)CCNCC1 (centres unmarked) [xxviii, 1-N-[N(1(H)indol-3-yl-carbonyl)-4-amino-piperidin-4-carbonyl]-amino-1-[N(methyl)-N-(2-phenylacetyl)]amino-2-(2-naphtyl)ethane] | 12.6
